System: A. fumigatus IDO mutants
Experiment: growth inhibition test against A. fumigatus IDO mutants
Type: cell-based
Details: tested against A. fumigatus IDO mutants
Description: In addition to re-purposing duplicated primary metabolism genes to have a biosynthetic role, fungi also utilize duplicated genes from primary metabolism as a form of self-resistance (Refs. A34, A35; incorporated by reference in their entireties). This Type II repurposing represents a particularly attractive avenue for drug discovery, as the duplicated gene will often provide insight into the mechanism of action of the encoded secondary metabolite. Several examples of such Type II repurposing have been discovered by targeting clusters with duplicate resistance targets. The proteasome inhibitor fellutamide B, for example, was discovered due to the presence of a duplicated proteasome subunit within its BGC (36). Similarly, the BGC encoding the methionine aminopeptidase inhibitor fumagillin contains both type I and type II methionine aminopeptidase genes in the gene cluster (FIG. 10) (Ref. A37; incorporated by reference in its entirety). While it is likely that many of the IDOs contained within the BGCs depicted in FIGS. 8 and 9 represent Type I biosynthetic enzymes that provide kynurenine for secondary metabolite synthesis, it is also possible that they represent Type II duplicated gene targets that serve to protect the producing organism against the biosynthetic product. […]

## Nc1ccccc1C(=O)NC1CC(=O)c2ccccc2NC1=O (stereo not shown) [terreazepine, 2-amino-N-(2,3,4,5-tetrahydro-2,5-dioxo-1H-1-benzazepin-3-yl)benzamide]
  growth inhibitory activity: no growth inhibitory activity was observed
